ChEMBL document CHEMBL1201862, “PubChem BioAssay data set” (2004)
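Method: 48-hour compound exposure of cells in 96-well plates, five concentrations, linear interpolation of endpoints. The concentration for 50% growth inhibition is given as GI50.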 The source made the active and inactive calls. No stated cut-off is given here; in the data, active = GI50 up to about 1.1 µM and inactive = higher.

Experiments:
Assay in all cases: growth of human tumour cells (NCI), 48 h
[1] = tested on: RXF 631
[2] = tested on: SN12C
[3] = tested on: OVCAR-4
[4] = tested on: UO-31
[5] = tested on: HCC 2998
[6] = tested on: KM-20L2
[7] = tested on: CCRF-CEM
[8] = tested on: CAKI-1
[9] = tested on: OVCAR-3
[10] = tested on: LOX IMVI
[11] = tested on: NCI-H23
[12] = tested on: Malme-3M
[13] = tested on: SNB-78
[14] = tested on: DLD-1
[15] = tested on: NCI-H226
[16] = tested on: TK-10
[17] = tested on: A498
[18] = tested on: SW-620
[19] = tested on: SF-268
[20] = tested on: SK-OV-3
[21] = tested on: RXF 393
[22] = tested on: 786-0
[23] = tested on: A549
[24] = tested on: SK-MEL-5
[25] = tested on: KM12
[26] = tested on: ACHN
[27] = tested on: IGROV-1
[28] = tested on: U-251
[29] = tested on: MOLT-4
[30] = tested on: NCI-H522
[31] = tested on: HOP-62
[32] = tested on: RPMI-8226
[33] = tested on: M19-MEL
[34] = tested on: UACC-62
[35] = tested on: HT-29
[36] = tested on: COLO 205
[37] = tested on: SF-539
[38] = tested on: UACC-257
[39] = tested on: HOP-92
[40] = tested on: SNB-19
[41] = tested on: DMS-273
[42] = tested on: SK-MEL-2
[43] = tested on: DMS-114
[44] = tested on: M14
[45] = tested on: EKVX
[46] = tested on: HCT-15
[47] = tested on: K562
[48] = tested on: SR
[49] = tested on: SF-295
[50] = tested on: SNB-75
[51] = tested on: XF498
[52] = tested on: NCI-H460
[53] = tested on: OVCAR-8
[54] = tested on: SK-MEL-28
[55] = tested on: LXFL 529
[56] = tested on: HCT-116
[57] = tested on: HOP-18
[58] = tested on: HL-60
[59] = tested on: OVCAR-5

## O=C1Nc2cc([N+](=O)[O-])c(Br)cc2C1=O
[1]
  GI50: 18.5 µM (inactive)
[2]
  GI50: 18.4 µM (inactive)
[3]
  GI50: 16.4 µM (inactive)
[4]
  GI50: 18.5 µM (inactive)
[5]
  GI50: > 10 µM (inactive)
[6]
  GI50: 15.3 µM (inactive)
[7]
  GI50: 6.01 µM (inactive)
[8]
  GI50: 19.1 µM (inactive)
[9]
  GI50: 18.1 µM (inactive)
[10]
  GI50: 18.5 µM (inactive)
[11]
  GI50: 17.3 µM (inactive)
[12]
  GI50: 22.5 µM (inactive)
[13]
  GI50: 23.3 µM (inactive)
[14]
  GI50: 22.2 µM (inactive)
[15]
  GI50: 18.5 µM (inactive)
[16]
  GI50: > 100 µM (inactive)
[17]
  GI50: > 100 µM (inactive)
[18]
  GI50: 19.3 µM (inactive)
[19]
  GI50: 20.9 µM (inactive)
[20]
  GI50: 17.5 µM (inactive)
[21]
  GI50: 24.7 µM (inactive)
[22]
  GI50: 18.5 µM (inactive)
[23]
  GI50: 95.7 µM (inactive)
[24]
  GI50: 21.1 µM (inactive)
[25]
  GI50: 51.4 µM (inactive)
[26]
  GI50: 18.2 µM (inactive)
[27]
  GI50: 17.5 µM (inactive)
[28]
  GI50: > 10 µM (inactive)
[29]
  GI50: 10.4 µM (inactive)
[30]
  GI50: 16.6 µM (inactive)
[31]
  GI50: 28.4 µM (inactive)
[32]
  GI50: 17.6 µM (inactive)
[33]
  GI50: 16.4 µM (inactive)
[34]
  GI50: 18.7 µM (inactive)
[35]
  GI50: 20.2 µM (inactive)
[36]
  GI50: 18.4 µM (inactive)
[37]
  GI50: 22.4 µM (inactive)
[38]
  GI50: 18 µM (inactive)
[39]
  GI50: 24.5 µM (inactive)
[40]
  GI50: > 10 µM (inactive)
[41]
  GI50: 20.1 µM (inactive)
[42]
  GI50: 26.7 µM (inactive)
[43]
  GI50: 17.5 µM (inactive)
[44]
  GI50: 16.6 µM (inactive)
[45]
  GI50: 22.4 µM (inactive)
[46]
  GI50: 18.9 µM
[47]
  GI50: 18.1 µM (inactive)
[48]
  GI50: 10.2 µM (inactive)
[49]
  GI50: 3.68 µM (inactive)
[50]
  GI50: 19 µM (inactive)
[51]
  GI50: 12.1 µM (inactive)
[52]
  GI50: 30.5 µM (inactive)
[53]
  GI50: 16.4 µM (inactive)
[54]
  GI50: 21.3 µM (inactive)

## Oc1nnc(CNc2ccc(Cl)cc2Cl)c2ccccc12
[1]
  GI50: > 100 µM (inactive)
[2]
  GI50: 34.3 µM (inactive)
[3]
  GI50: 16.5 µM (inactive)
[4]
  GI50: 17.3 µM (inactive)
[5]
  GI50: 20 µM (inactive)
[6]
  GI50: 25.6 µM (inactive)
[7]
  GI50: > 100 µM (inactive)
[8]
  GI50: 24.1 µM (inactive)
[9]
  GI50: 18.9 µM (inactive)
[10]
  GI50: 46.3 µM (inactive)
[12]
  GI50: 23.6 µM (inactive)
[13]
  GI50: 62.7 µM (inactive)
[14]
  GI50: 21.2 µM (inactive)
[55]
  GI50: 17.1 µM (inactive)
[15]
  GI50: 36.1 µM (inactive)
[16]
  GI50: 20.7 µM (inactive)
[17]
  GI50: 8.24 µM (inactive)
[18]
  GI50: 37.1 µM (inactive)
[19]
  GI50: 19.9 µM (inactive)
[20]
  GI50: 18.9 µM (inactive)
[21]
  GI50: 13.9 µM (inactive)
[22]
  GI50: 16.7 µM (inactive)
[23]
  GI50: 17.7 µM (inactive)
[24]
  GI50: 19.7 µM (inactive)
[25]
  GI50: 39.3 µM (inactive)
[56]
  GI50: 22.8 µM (inactive)
[26]
  GI50: 22.8 µM (inactive)
[27]
  GI50: 25.5 µM (inactive)
[57]
  GI50: 23.1 µM (inactive)
[28]
  GI50: 18.2 µM (inactive)
[29]
  GI50: 31.5 µM (inactive)
[30]
  GI50: 18.2 µM (inactive)
[31]
  GI50: 20.5 µM (inactive)
[32]
  GI50: 58.2 µM (inactive)
[58]
  GI50: 22.5 µM (inactive)
[33]
  GI50: 33 µM (inactive)
[34]
  GI50: 27.5 µM (inactive)
[35]
  GI50: 31.8 µM (inactive)
[36]
  GI50: 45.8 µM (inactive)
[37]
  GI50: 17.1 µM (inactive)
[38]
  GI50: 33.4 µM (inactive)
[39]
  GI50: 32.7 µM (inactive)
[40]
  GI50: 28.1 µM (inactive)
[41]
  GI50: 19.5 µM (inactive)
[42]
  GI50: 82.8 µM (inactive)
[43]
  GI50: 13.9 µM (inactive)
[44]
  GI50: 32 µM (inactive)
[45]
  GI50: 36.2 µM (inactive)
[46]
  GI50: 20.1 µM
[47]
  GI50: 44.9 µM (inactive)
[48]
  GI50: 32.7 µM (inactive)
[49]
  GI50: 20.9 µM (inactive)
[50]
  GI50: 23.6 µM (inactive)
[59]
  GI50: 24.4 µM (inactive)
[52]
  GI50: 24.6 µM (inactive)
[54]
  GI50: 22.3 µM (inactive)
